This passage reports IC50 and change in vivo results from patent US5081242A, “6-benzoxazinyl- and 6-benzothiazinyl 2,3,4,5-tetrahydropyridazin-3-ones” (Ortho Pharmaceutical Corporation, priority 1991, dated 1992).

Test [1] has as its target cyclic nucleotide phosphodiesterase. The experiment in a line: Phosphodiesterase inhibitory activity (cyclic AMP hydrolysis). To be noted: read-out: IC50 (50% inhibition of cyclic nucleotide phosphodiesterase activity); cyclic AMP 0.10-1.0 μM, pH 7.4. Type of test: biochemical.
The test system of the next test is adult mongrel dogs. The experiment in a line: Cardiotonic activity in anesthetized dogs (myocardial contractile force, i.v.). The note with it: Canis lupus familiaris, iv, vs pretreatment control, read-out: CF: Percent increase in cardiac force; for change in vivo at 0.47 mg/kg: i.v. dose 0.47 mpk; for change in vivo at 1.87 mg/kg: i.v. dose 1.87 mpk; for change in vivo at 0.075 mg/kg: i.v. dose 0.075 mpk. Type of test: in vivo. On the procedure: The cardiotonic activity of the compounds was determined in accordance with the method of Alousi, A. A., et al., J. Cir. Res. 45, 666 (1979). Basically, adult mongrel dogs were anesthetized with sodium pentobarbital and artificially respired. Arterial pressure was recorded via a femoral artery and the pressure pulse used to trigger a cardiotachometer for heart rate. Left ventricular pressure was measured with a Millar catheter and dP/dt was derived. Cardiac output was determined by measuring ascending aortic blood flow with an electromagnetic flow probe and myocardial contractile force was measured with a Walton Brodie strain gauge sutured to the right ventricle. Lead II EKG was also recorded. A standard does of dopamine was administered to assess myocardial responsiveness. Test compounds were administered by i.v. infusion or bolus administration and the effects on cardiovascular parameters were determined. Dose-related effects of the test compound on BP, HR, dP/dt max., C.F. and C.O. were compared to pretreatment control values and expressed as a percentage change.

The structures appear in SMILES notation.

By IC50 is commonly meant the concentration at which inhibition is half-maximal. For the molecule `CC1CNc2cc(C3=NNC(=O)CC3)ccc2O1` (racemic) [Example 18, 6-(3,4-Dihydro-2-methyl-1,4(2H)-benzoxazin-6-yl)-2,3,4,5-tetrahydropyridazin-3-one], in test [1], the IC50 was determined as 8 µM. For the same molecule, the change in vivo at 0.47 mg/kg with adult mongrel dogs amounted to 50%. Take `O=C1CCC(c2ccc3c(c2)NC(=O)CO3)=NN1` [Example 20, 6-(3,4-Dihydro-3-oxo-1,4(2H)-benzoxazin-6-yl)-2,3,4,5-tetrahydropyridazin-3-one]: the IC50 in test [1] worked out at 630 µM. For the same molecule, in the test with adult mongrel dogs, the change in vivo at 1.87 mg/kg came out at 71%. Regarding `CC1CC(=O)NN=C1c1ccc2c(c1)OCC(=O)N2` (racemic) [Example 46, 6-(3,4-Dihydro-3-oxo-1,4(2H)-benzoxazin-7-yl)-2,3,4,5-tetrahydro-5-methylpyridazin-3-one], the IC50 in test [1] amounted to 0.3 µM. Further, in the test with adult mongrel dogs, the change in vivo at 0.075 mg/kg was 130%. Take `Cc1cc2c(c(C3=NNC(=O)CC3)c1)OCC(=O)N2` [Example 38, 6-(3,4-Dihydro-6-methyl-3-oxo-1,4(2H)-benzoxazin-8-yl)-2,3,4,5-tetrahydropyridazin-3-one]: the IC50 in test [1] was found to be 31 µM. Moreover, the change in vivo at 0.47 mg/kg in the test with adult mongrel dogs was 24%. For `Cc1cc2c(c(C3=NNC(=O)CC3C)c1)OCCN2` (centres unmarked) [Example 42, 6-(3,4-Dihydro-6-methyl-1,4(2H)-benzoxazin-8-yl)-2,3,4,5-tetrahydro-5-methylpyridazin-3-one], the change in vivo at 0.47 mg/kg in the test with adult mongrel dogs stood at 15%.

Take `CC1CC(=O)NN=C1c1ccc2c(c1)NC(=O)C(C)O2` (centres unmarked) [Example 26, 6-(3,4-Dihydro-2-methyl-3-oxo-1,4(2H)-benzoxazin-6-yl)-2,3,4,5-tetrahydro-5-methylpyridazin-3-one]: in test [1], the IC50 is 5 µM. In addition, the change in vivo at 0.47 mg/kg with adult mongrel dogs was found to be 156%. Consider `Cc1cc2c(cc1C1=NNC(=O)CC1)NC(=O)CO2` [Example 28, 6-(3,4-Dihydro-7-methyl-3-oxo-1,4(2H)-benzoxazin-6-yl)-2,3,4,5-tetrahydropyridazin-3-one], for which, in test [1], the IC50 came out at 15 µM. Moreover, the change in vivo at 0.47 mg/kg in the test on adult mongrel dogs worked out at 46%. Turning to `CN1C(=O)CSc2ccc(C3=NNC(=O)CC3)cc21` [Example 54, 6-(3,4-Dihydro-4-methyl-3-oxo-1,4[2H]-benzothiazin-6-yl)-2,3,4,5-tetrahydropyridazin-3-one], the IC50 in test [1] came to 22 µM. Moreover, the change in vivo at 0.075 mg/kg in the test with adult mongrel dogs was found to be 11%. With `Cc1cc2c(cc1C1=NNC(=O)CC1C)NC(=O)CO2` (racemic) [Example 30, 6-(3,4-Dihydro-7-methyl-3-oxo-1,4(2H)-benzoxazin-6-yl)-2,3,4,5-tetrahydro-5-methylpyridazin-3-one], in test [1], the IC50 stood at 20 µM. In the test on adult mongrel dogs, the change in vivo at 0.47 mg/kg was 124%. In the case of `C=CCN1N=C(c2ccc3c(c2)N(S(C)(=O)=O)CCO3)CCC1=O` [Example 11, 6-(3,4-Dihydro-4-methanesulfonyl-1,4(2H)-benzoxazin-6-yl)-2,3,4,5-tetrahydro-2-(2-propenyl)pyridazin-3-one], in the test with adult mongrel dogs, the change in vivo at 1.87 mg/kg amounted to 41%. With `CC1CC(=O)NN=C1c1ccc2c(c1)N(S(C)(=O)=O)CCO2` (racemic) [Example 17, 6-(3,4-Dihydro-4-methanesulfonyl-1,4(2H)-benzoxazin-6-yl)-2,3,4,5-tetrahydro-5-methylpyridazin-3-one], in test [1], the IC50 amounted to 4 µM. Moreover, the change in vivo at 1.87 mg/kg in the test with adult mongrel dogs came to 62%. Taken in the same sequence, the figures for `COc1ccc(C(=O)N2CCOc3ccc(C4=NNC(=O)CC4)cc32)cc1OC` [Example 14, 6-(3,4-Dihydro-4-(3,4-dimethoxyphenylcarbonyl)-1,4(2H)-benzoxazin-6-yl)-2,3,4,5-tetrahydropyridazin-3-one] were 80 µM and 30%. Turning to `Cc1cc2c(cc1C1=NNC(=O)CC1C)N(C)C(=O)CO2` (racemic) [Example 31, 6-(3,4-Dihydro-4,7-dimethyl-3-oxo-1,4(2H)-benzoxazin-6-yl)-2,3,4,5-tetrahydro-5-methylpyridazin-3-one], the IC50 in test [1] was 38 µM. The change in vivo at 0.47 mg/kg in the test on adult mongrel dogs is 33%. For the molecule `CC1CC(=O)NN=C1c1ccc2c(c1)NC(=O)CO2` (racemic) [Example 22, 6-(3,4-Dihydro-3-oxo-1,4(2H)-benzoxazin-6-yl)-2,3,4,5-tetrahydro-5-methylpyridazin-3-one], the IC50 in test [1] stood at 2 µM. Also, in the test on adult mongrel dogs, the change in vivo at 0.47 mg/kg was determined as 136%. For `CC1CC(=O)NN=C1c1ccc2c(c1)N(C1CCCC1)C(=O)C(C)O2` (centres unmarked) [Example 37, 6-(3,4-Dihydro-4-cyclopentyl-2-methyl-3-oxo-1,4(2H)-benzoxazin-6-yl)-2,3,4,5-tetrahydro-5-methylpyridazin-3-one], in that order: 8 µM and 4%. As for `Cc1cc2c(c(C3=NNC(=O)CC3C)c1)OCC(=O)N2` (centres unmarked) [Example 40, 6-(3,4-Dihydro-6-methyl-3-oxo-1,4(2H)-benzoxazin-8-yl)-2,3,4,5-tetrahydro-5-methylpyridazin-3-one], the IC50 in test [1] was determined as 26 µM. Also, the change in vivo at 0.47 mg/kg in the test with adult mongrel dogs was 22%. As for `Cc1cc(C2=NNC(=O)CC2)c2c(c1)N(C)C(=O)CO2` [Example 39, 6-(3,4-Dihydro-4,6-dimethyl-3-oxo-1,4(2H)-benzoxazin-8-yl)-2,3,4,5-tetrahydropyridazin-3-one], the IC50 in test [1] worked out at 28 µM. Also, in the test with adult mongrel dogs, the change in vivo at 0.47 mg/kg was 18%.

For `Cc1cc(C2=NNC(=O)CC2C)c2c(c1)N(C)C(=O)CO2` (centres unmarked) [Example 41, 6-(3,4-Dihydro-4,6-dimethyl-3-oxo-1,4(2H)-benzoxazin-8-yl)-2,3,4,5-tetrahydro-5-methylpyridan-3-one], in test [1], the IC50 worked out at 7 µM. Further, the change in vivo at 0.47 mg/kg in the test with adult mongrel dogs amounted to 60%. With `CC1CC(=O)NN=C1c1ccc2c(c1)N(C)C(=O)C(C)O2` (centres unmarked) [Example 27, 6-(3,4-Dihydro-2,4-dimethyl-3-oxo-1,4(2H)-benzoxazin-6-yl)-2,3,4,5-tetrahydro-5-methylpyridazin-3-one], the IC50 in test [1] came to 6 µM. For the same molecule, the change in vivo at 0.47 mg/kg in the test with adult mongrel dogs worked out at 117%. Take `CN1C(=O)COc2ccc(C3=NNC(=O)CC3)cc21` [Example 21, 6-(3,4-Dihydro-4-methyl-3-oxo-1,4(2H)-benzoxazin-6-yl)-2,3,4,5-tetrahydropyridazin-3-one]: the IC50 in test [1] was found to be 18 µM. In the test on adult mongrel dogs, the change in vivo at 0.47 mg/kg was determined as 74%.

Take `Cc1cc2c(cc1C1=NNC(=O)CC1)OCC(=O)N2C` [Example 43, 6-(3,4-Dihydro-4,6-dimethyl-3-oxo-1,4(2H)-benzoxazin-7-yl)-2,3,4,5-tetrahydropyridazin-3-one]: the IC50 in test [1] worked out at 35 µM. For the same molecule, the change in vivo at 0.47 mg/kg in the test with adult mongrel dogs worked out at 104%.

On to `CC1CC(=O)NN=C1c1ccc2c(c1)N(C)C(=O)CO2` (racemic) [Example 23, 6-(3,4-Dihydro-4-methyl-3-oxo-1,4(2H)-benzoxazin-6-yl)-2,3,4,5-tetrahydro-5-methylpyridazin-3-one], for which the IC50 in test [1] stood at 8 µM. Besides, the change in vivo at 0.47 mg/kg in the test on adult mongrel dogs was determined as 134%. In the case of `CC1CC(=O)NN=C1c1ccc2c(c1)NCCO2` (racemic) [Example 15, 6-(3,4-Dihydro-1,4(2H)-benzoxazin-6-yl)-2,3,4,5-tetrahydro-5-methylpyridazin-3-one], the IC50 in test [1] is 8 µM. The change in vivo at 1.87 mg/kg in the test with adult mongrel dogs turned out to be 125%. For the molecule `CC1CNc2cc(C3=NNC(=O)CC3C)ccc2O1` (centres unmarked) [Example 19, 6-(3,4-Dihydro-2-methyl-1,4(2H)-benzoxazin-6-yl)-2,3,4,5-tetrahydro-5-methylpyridazin-3-one], the half-maximal inhibitory concentration (IC50) in test [1] was found to be 40 µM. Further, the change in vivo at 0.47 mg/kg in the test with adult mongrel dogs is 98%. Take `CC1Oc2ccc(C3=NNC(=O)CC3)cc2NC1=O` (racemic) [Example 24, 6-(3,4-Dihydro-2-methyl-3-oxo-1,4(2H)-benzoxazin-6-yl)-2,3,4,5-tetrahydropyridazin-3-one]: the IC50 in test [1] came out at 14 µM. The change in vivo at 0.47 mg/kg in the test with adult mongrel dogs was 54%. Regarding `CS(=O)(=O)N1CCOc2ccc(C3=NNC(=O)CC3)cc21` [Example 8, 6-(3,4-Dihydro-4-methanesulfonyl-1,4(2H)-benzoxazin-6-yl)-2,3,4,5-tetrahydropyridazin-3-one], the IC50 in test [1] worked out at 9.5 µM. Moreover, in the test with adult mongrel dogs, the change in vivo at 1.87 mg/kg is 98%.

As for `CN1N=C(c2ccc3c(c2)N(S(C)(=O)=O)CCO3)CCC1=O` [Example 9, 6-(3,4-Dihydro-4-methanesulfonyl-1,4(2H)-benzoxazin-6-yl)-2,3,4,5-tetrahydro-2-methylpyridazin-3-one], the IC50 in test [1] was found to be 100 µM. Further, in the test on adult mongrel dogs, the change in vivo at 1.87 mg/kg was found to be 62%. Turning to `Cc1cc2c(cc1C1=NNC(=O)CC1)N(C)C(=O)CO2` [Example 29, 6-(3,4-Dihydro-4,7-dimethyl-3-oxo-1,4(2H)-benzoxazin-6-yl)-2,3,4,5-tetrahydropyridazin-3-one], the concentration for half-maximal inhibition (IC50) in test [1] came to 56 µM. The change in vivo at 0.47 mg/kg in the test with adult mongrel dogs stood at 12%. On to `O=C1CCC(c2ccc3c(c2)NCCO3)=NN1` [Example 12, 6-(3,4-Dihydro-1,4(2H)-benzoxazin-6-yl)-2,3,4,5-tetrahydropyridazin-3-one], for which the change in vivo at 1.87 mg/kg in the test with adult mongrel dogs was 92%. `CCCCCN1N=C(c2ccc3c(c2)N(S(C)(=O)=O)CCO3)CCC1=O` [Example 10, 6-(3,4-Dihydro-4-methanesulfonyl-1,4(2H)-benzoxazin-6-yl)-2,3,4,5-tetrahydro-2-pentylpyridazin-3-one]: the change in vivo at 1.87 mg/kg with adult mongrel dogs is 18%.
